Laboratory results as given in patent US20130310387A1, “Monocyclic Heteroaryl Cycloalkyldiamine Derivatives” (NOVARTIS AG, priority 2012, published 2013).

Experiments:
[1] = target: Syk (2-635) (KSYK_HUMAN, P43405) (Homo sapiens, UniProt P43405); test: Syk enzyme assay (chip based microfluidic mobility shift assay); format: biochemical; details: 4 μM ATP, 4 nM Syk, 60 minutes at 30° C.
Description: A number of compounds of the present invention were assayed in a chip based microfluidic mobilitiy shift assay. All assays were performed in 384 well microtiter plates. Each assay plate contained 8-point serial dilutions for 40 test compounds, as well as four 8-point serial dilutions of staurosporine as reference compound, plus 16 high- and 16 low controls. Liquid handling and incubation steps were done on a Thermo CatX workstation equipped with a Innovadyne Nanodrop Express. Between pipetting steps, tips were cleaned in wash cycles using wash buffer. The assay plates were prepared by addition of 50 nl per well of compound solution in 90% DMSO. […] Kinase reactions were incubated at 30° C. for 60 minutes and subsequently terminated by addition of 16 μl per well of stop solution (100 mM HEPES pH 7.5, 5% DMSO, 0.1% Caliper coating reagent, 10 mM EDTA, and 0.015% Brij35). Plates with terminated kinase reactions were transferred to the Caliper LC3000 workstations for reading. Phosphorylated and unphosphorylated peptides were separated using the Caliper microfluidic mobility shift technology. Briefly, samples from terminated kinase reactions were applied to the chip. Analytes are transported through the chip by constant buffer flow and the migration of the substrate peptide is monitored by the fluorescence signal of its label. Phosphorylated peptide (product) and unphosphorylated peptide (substrate) are separated in an electric field by their charge/mass ratio. Kinase activities were calculated from the amounts of formed phospho-peptide. […] values were determined from percent inhibition values at different compound concentrations by non-linear regression analysis.
Test compounds were dissolved in DMSO (10 mM) and transferred into 1.4 mL flat bottom or V-shaped Matrix tubes carrying a unique 2D matrix. The stock solutions were stored at […] if not used immediately. For the test procedure the vials were defrosted and identified by a scanner whereby a working sheet was generated that guided the subsequent working steps.
Compound dilutions were made in 96 well plates. This format enabled the assay of maximally 40 individual test compounds at 8 concentrations (single points) including 4 reference compounds. The dilution protocol included the production of “pre-dilution plates”, “master plates” and “assay plates”.
96 polypropylene well plates were used as pre-dilution plates. A total of 4 pre-dilution plates were prepared including 10 test compounds each on the plate positions A1-A10, one standard compound at A11 and one DMSO control at A12. All dilution steps were done on a HamiltonSTAR robot.
30 μL of individual compound dilutions including standard compound and controls of the 4 “pre-dilution plates” were transferred into a 384 “master plate” including the following concentrations 1′810, 362, 72.5, […], 14.5, 2.9, 0.58 and 0.12 μM, respectively in 90% of DMSO.
Identical “assay plates” were then prepared by pipetting […] each of compound dilutions of the “master plates” into 384-well “assay plates” by means of a HummingBird 384-channel dispenser. These plates were used directly for the assay which was performed in a total volume of 9.05 μL. This led to a final compound concentration of 10, 2.0, 0.4, 0.08, 0.016, 0.0032, 0.00064 and 0.000128 μM and a final DMSO concentration of 0.5% in the assay.

[2] = system: phosphorylation of BLNK in Ramos B cells; test: Anti IgM-induced phosphorylation of BLNK in Ramos B cells; format: cell-based; details: Homo sapiens, 0.25 h, anti IgM 15 min, flow cytometry anti-BLNK (pY84)
Description: Anti IgM-induced phosphorylation of BLNK (BLNK=B cell linker (SLP65=SH2 domain containing leukocyte protein of 65 kDa)) in Ramos B cells: Ramos B cells in a volume of 25 μl were incubated with 25 μl of the compound solution at 2-fold the desired final concentration for 30 min. at 37° C. Then 50 μL anti IgM was added, mixed and incubated for 15 min. at 37° C. In each experiment 8-fold serial dilutions of compounds were tested. The stimulation was stopped by addition of 100 μL/well of PFA (para formaldehyde) I PBS (phosphate buffered saline) (final conc. 2% PFA) for fixation and incubated for 15 min. at 37° C., then centrifuged at 1300 rpm for 3 min and permeabilized by resuspending the cell pellet in 100 μL methanol 90% and further incubated for 30 min at 4° C. The cells were then washed and phosphoproteins were detected by flow cytometry using fluorescently labeled anti-BLNK ([…]) (BD Biosciences).

[3] = system: SLP-76 phosphorylation in human whole blood monocytes; test: FcR stimulation-induced SLP-76 phosphorylation in human whole blood monocytes; format: cell-based; details: Monocyte, 5 min, anti CD32 stimulation 5 min, flow cytometry, read-out: Fc Recepor stimulation induced SLP-76 phosphorylation in human whole blood monocytes, IC50
From the text: After lysis of erythrocytes and washings, the cell pellet was permeabilized with ice-cold methanol 90%. The permeabilized cells were washed and stained with anti CD14 (eBioscience) to detect monocytes and anti P-SLP76 ([…]) (BD Biosciences) and quantified by flow cytometry.

hERG channel = target: T1, hERG channel (Homo sapiens, UniProt Q12809); test: Inhibition of the hERG channel (manual patch clamp assay); format: cell-based; details: HEK293 cells stably transfected with hERG cDNA, whole-cell patch clamp, tail current
T1 construct: host or cells: HEK293
From the text: The hERG patch clamp assay was done according to standard procedures used in Genetic Toxicology and Safety Pharmacology, based on recommendations and descriptions of methods in the literature, and according to current guidelines (ICH S7B, The non clinical evaluation of the potential for delayed ventricular repolarization (QT interval prolongation) by human pharmaceuticals, 2005). The purpose of the study is to assess the effect of the test item ABC123 on tail current recorded from HEK293 cells stably transfected with hERG cDNA. The HEK293 cells, which have been stably transfected with hERG cDNA, are a model considered to be suitable for this purpose (Zhou et al., 1998). Repolarisation of cardiac ventricular myocytes is mainly due to outward potassium currents. The most important current in humans is the delayed rectifier potassium current, IK, which has both rapidly and slowly activating components (IKr and IKs) (Sanguinetti and Jurkiewicz, 1990). The human ether-a-gogo-related-gene (hERG) encodes the major protein underlying IKr. Thus, inhibition of hERG potassium channels may lead to delayed cardiac repolarisation (Sanguinetti et al., 1995). Prolongation of cardiac repolarisation is a side effect that can be associated with some drug therapies. This proarrhythmic alteration is characterised by a prolongation of the QT interval in the surface electrocardiogram and is of particular concern because it may lead to the development of polymorphic ventricular arrhythmias like torsade de pointes (for review see: Vandenberg, Walker and Campbell, 2001). […] HERG HEK (HEK293 cells stably transfected with hERG cDNA) obtained from the University of Wisconsin were used. For the experiments the cells were plated onto sterile Thermanox plastic coverslips (Nalge Nunc International) in 6-well plates. The dishes were stored in a humidified, gassed incubator. The coverslips with cells were transferred to the recording chamber and continuously superfused (at approximately 1-2 ml/min) with vehicle. The temperature of the vehicle in the bath chamber was regulated by temperature controllers to 35° C.±2.0° C. hERG currents were measured in the whole-cell patch-clamp configuration. Once a stable patch clamp configuration was achieved, recording commenced in voltage-clamp mode, with the cell initially clamped at -75 mV. hERG current was observed and recorded if a stable hERG tail current response could be induced. […] The hERG HEK293 cells were treated approximately 9 min with the test item. The following voltage protocol was applied to induce hERG currents: The step from -75 mV to +10 mV activates an outward current (i.e. current flows out of the cell) and the step from +10 mV to -40 mV produces the tail current (the tail current represents the time taken for the current to turn off). […] The leak current was recorded and subtracted by a P/3n pulse between the voltage pulses (0.1 Hz).

T1 sequence (Q12809 whole entry): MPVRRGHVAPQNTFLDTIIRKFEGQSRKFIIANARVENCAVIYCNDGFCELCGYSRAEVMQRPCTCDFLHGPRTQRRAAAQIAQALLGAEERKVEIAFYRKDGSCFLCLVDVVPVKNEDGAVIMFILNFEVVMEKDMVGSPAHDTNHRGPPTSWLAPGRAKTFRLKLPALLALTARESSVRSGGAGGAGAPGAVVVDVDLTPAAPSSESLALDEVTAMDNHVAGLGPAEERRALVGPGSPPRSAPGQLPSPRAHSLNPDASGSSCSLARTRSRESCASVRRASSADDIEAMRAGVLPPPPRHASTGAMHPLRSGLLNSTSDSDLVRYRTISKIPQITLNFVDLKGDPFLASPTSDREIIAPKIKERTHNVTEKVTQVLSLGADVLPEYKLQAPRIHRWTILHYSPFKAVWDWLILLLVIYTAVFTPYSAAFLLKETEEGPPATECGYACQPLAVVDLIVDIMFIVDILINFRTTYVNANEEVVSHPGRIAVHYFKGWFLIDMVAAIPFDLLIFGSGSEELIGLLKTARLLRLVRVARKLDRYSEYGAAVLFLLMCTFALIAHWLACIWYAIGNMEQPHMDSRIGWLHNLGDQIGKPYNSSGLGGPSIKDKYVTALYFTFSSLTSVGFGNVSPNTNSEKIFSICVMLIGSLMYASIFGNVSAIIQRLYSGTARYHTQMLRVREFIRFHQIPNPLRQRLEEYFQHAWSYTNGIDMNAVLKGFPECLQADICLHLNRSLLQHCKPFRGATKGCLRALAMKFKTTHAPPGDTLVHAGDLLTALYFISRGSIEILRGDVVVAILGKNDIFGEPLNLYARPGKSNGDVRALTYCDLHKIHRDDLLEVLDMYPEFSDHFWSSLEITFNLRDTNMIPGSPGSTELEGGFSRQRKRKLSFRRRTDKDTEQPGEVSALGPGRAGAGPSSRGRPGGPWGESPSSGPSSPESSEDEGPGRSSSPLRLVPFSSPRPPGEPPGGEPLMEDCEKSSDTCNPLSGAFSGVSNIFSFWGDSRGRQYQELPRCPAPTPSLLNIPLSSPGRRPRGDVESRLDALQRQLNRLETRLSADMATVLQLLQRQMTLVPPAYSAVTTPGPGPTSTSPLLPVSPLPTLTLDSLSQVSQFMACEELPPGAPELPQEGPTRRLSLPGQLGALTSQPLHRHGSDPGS

Compound | IC50 [1] | IC50 [2] | IC50 [3] | inhibition at 9 min, 3 µM (hERG channel; at 3 uM) | inhibition at 9 min, 10 µM (hERG channel; at 10 uM) | inhibition at 9 min, 30 µM (hERG channel; at 30 uM)
NC(=O)c1ncc(N[C@@H]2CCCC[C@@H]2N)nc1Nc1cccc2cc[nH]c12 [Example 4.1, 5-((1R,2S)-2-Amino-cyclohexylamino)-3-(1H-indol-7-ylamino)-pyrazine-2-carboxylic acid amide] | 2.7 nM | 28 nM | 311 nM | – | – | –
Cc1c[nH]c2c(Nc3nc(N[C@@H]4CCCC[C@@H]4N)cnc3C(N)=O)cccc12 [Example 4.2, 5-((1R,2S)-2-Amino-cyclohexylamino)-3-(3-methyl-1H-indol-7-ylamino)-pyrazine-2-carboxylic acid amide] | 1 nM | 36 nM | 596 nM | – | – | –
NC(=O)c1nnc(N[C@@H]2CCCC[C@@H]2N)nc1Nc1cccc2[nH]ccc12 [Example 1.4, 3-((1R,2S)-2-Amino-cyclohexylamino)-5-(1H-indol-4-ylamino)-[1,2,4]triazine-6-carboxylic acid amide] | 1 nM | 14 nM | 177 nM | – | – | –
N#Cc1c[nH]c2c(Nc3nc(N[C@@H]4CCCC[C@@H]4N)nnc3C(N)=O)cccc12 [Example 2.4, 3-((1R,2S)-2-Amino-cyclohexylamino)-5-(3-cyano-1H-indol-7-ylamino)-[1,2,4]triazine-6-carboxylic acid amide] | 86 nM | 890 nM | – | – | – | –
NC(=O)c1nnc(N[C@@H]2CCCC[C@@H]2N)nc1Nc1cccc2c(Cl)c[nH]c12 [Example 2.3, 3-((1R,2S)-2-Amino-cyclohexylamino)-5-(3-chloro-1H-indol-7-ylamino)-[1,2,4]triazine-6-carboxylic acid amide] | 11 nM | 393 nM | – | – | – | –
Cn1ccc2c(Nc3nc(N[C@@H]4CCCC[C@@H]4N)cnc3C(N)=O)cccc21 [Example 3.1, 5-((1R,2S)-2-Amino-cyclohexylamino)-3-(1-methyl-1H-indol-4-ylamino)-pyrazine-2-carboxylic acid amide] | 0.5 nM | 25 nM | – | – | – | –
NC(=O)c1nnc(N[C@@H]2CCCC[C@@H]2N)nc1Nc1cccc2[nH]ncc12 [Example 2.5, 3-((1R,2S)-2-Amino-cyclohexylamino)-5-(1H-indazol-4-ylamino)-[1,2,4]triazine-6-carboxylic acid amide] | 30 nM | 106 nM | 671 nM | – | – | –
NC(=O)c1nnc(N[C@@H]2CCCC[C@@H]2N)nc1Nc1cc(F)cc2cc[nH]c12 [Example 2.6, 3-((1R,2S)-2-Amino-cyclohexylamino)-5-(5-fluoro-1H-indol-7-ylamino)-[1,2,4]triazine-6-carboxylic acid amide] | 4.6 nM | 37 nM | 562 nM | – | – | –
Cc1c[nH]c2c(Nc3nc(N[C@@H]4CCCC[C@@H]4N)nnc3C(N)=O)cc(F)cc12 [Example 1.2, 3-((1R,2S)-2-Amino-cyclohexylamino)-5-(5-fluoro-3-methyl-1H-indol-7-ylamino)-[1,2,4]triazine-6-carboxylic acid amide] | 0.8 nM | 63 nM | 491 nM | – | – | –
Cn1cc2c(Nc3nc(N[C@@H]4CCCC[C@@H]4N)nnc3C(N)=O)cccc2n1 [Example 2.2, 3-((1R,2S)-2-Amino-cyclohexylamino)-5-(2-methyl-2H-indazol-4-ylamino)-[1,2,4]triazine-6-carboxylic acid amide] | – | 58 nM | 394 nM | – | – | –
Cn1ncc2c(Nc3nc(N[C@@H]4CCCC[C@@H]4N)nnc3C(N)=O)cccc21 [Example 2.1, 3-((1R,2S)-2-Amino-cyclohexylamino)-5-(1-methyl-1H-indazol-4-ylamino)-[1,2,4]triazine-6-carboxylic acid amide] | 12 nM | 121 nM | 509 nM | – | – | –
Cc1c[nH]c2c(Nc3nc(N[C@@H]4CCCC[C@@H]4N)nnc3C(N)=O)cccc12 [Example 1.3, 3-((1R,2S)-2-Amino-cyclohexylamino)-5-(3-methyl-1H-indol-7-ylamino)-[1,2,4]triazine-6-carboxylic acid amide] | 3.5 nM | 72 nM | 447 nM | 24 ± 3% | 37 ± 6% | 74 ± 6%
